Laboratory results published in PubChem BioAssay AID588689 (Southern Research Specialized Biocontainment Screening …, 2011).

Biological target: Genome polyprotein (Dengue virus type 2 (strain 16681-PDK53)) (UniProt P29991)
Test: Dengue-2 NS5 methyltransferase inhibitors, primary screen, biochemical, confirmation dose response (AID 588689)
Conditions: Dengue-2 NS5 methyltransferase capping enzyme assay

Genome polyprotein (Dengue virus type 2 (strain 16681-PDK53)), sequence (P29991 whole entry, looked up): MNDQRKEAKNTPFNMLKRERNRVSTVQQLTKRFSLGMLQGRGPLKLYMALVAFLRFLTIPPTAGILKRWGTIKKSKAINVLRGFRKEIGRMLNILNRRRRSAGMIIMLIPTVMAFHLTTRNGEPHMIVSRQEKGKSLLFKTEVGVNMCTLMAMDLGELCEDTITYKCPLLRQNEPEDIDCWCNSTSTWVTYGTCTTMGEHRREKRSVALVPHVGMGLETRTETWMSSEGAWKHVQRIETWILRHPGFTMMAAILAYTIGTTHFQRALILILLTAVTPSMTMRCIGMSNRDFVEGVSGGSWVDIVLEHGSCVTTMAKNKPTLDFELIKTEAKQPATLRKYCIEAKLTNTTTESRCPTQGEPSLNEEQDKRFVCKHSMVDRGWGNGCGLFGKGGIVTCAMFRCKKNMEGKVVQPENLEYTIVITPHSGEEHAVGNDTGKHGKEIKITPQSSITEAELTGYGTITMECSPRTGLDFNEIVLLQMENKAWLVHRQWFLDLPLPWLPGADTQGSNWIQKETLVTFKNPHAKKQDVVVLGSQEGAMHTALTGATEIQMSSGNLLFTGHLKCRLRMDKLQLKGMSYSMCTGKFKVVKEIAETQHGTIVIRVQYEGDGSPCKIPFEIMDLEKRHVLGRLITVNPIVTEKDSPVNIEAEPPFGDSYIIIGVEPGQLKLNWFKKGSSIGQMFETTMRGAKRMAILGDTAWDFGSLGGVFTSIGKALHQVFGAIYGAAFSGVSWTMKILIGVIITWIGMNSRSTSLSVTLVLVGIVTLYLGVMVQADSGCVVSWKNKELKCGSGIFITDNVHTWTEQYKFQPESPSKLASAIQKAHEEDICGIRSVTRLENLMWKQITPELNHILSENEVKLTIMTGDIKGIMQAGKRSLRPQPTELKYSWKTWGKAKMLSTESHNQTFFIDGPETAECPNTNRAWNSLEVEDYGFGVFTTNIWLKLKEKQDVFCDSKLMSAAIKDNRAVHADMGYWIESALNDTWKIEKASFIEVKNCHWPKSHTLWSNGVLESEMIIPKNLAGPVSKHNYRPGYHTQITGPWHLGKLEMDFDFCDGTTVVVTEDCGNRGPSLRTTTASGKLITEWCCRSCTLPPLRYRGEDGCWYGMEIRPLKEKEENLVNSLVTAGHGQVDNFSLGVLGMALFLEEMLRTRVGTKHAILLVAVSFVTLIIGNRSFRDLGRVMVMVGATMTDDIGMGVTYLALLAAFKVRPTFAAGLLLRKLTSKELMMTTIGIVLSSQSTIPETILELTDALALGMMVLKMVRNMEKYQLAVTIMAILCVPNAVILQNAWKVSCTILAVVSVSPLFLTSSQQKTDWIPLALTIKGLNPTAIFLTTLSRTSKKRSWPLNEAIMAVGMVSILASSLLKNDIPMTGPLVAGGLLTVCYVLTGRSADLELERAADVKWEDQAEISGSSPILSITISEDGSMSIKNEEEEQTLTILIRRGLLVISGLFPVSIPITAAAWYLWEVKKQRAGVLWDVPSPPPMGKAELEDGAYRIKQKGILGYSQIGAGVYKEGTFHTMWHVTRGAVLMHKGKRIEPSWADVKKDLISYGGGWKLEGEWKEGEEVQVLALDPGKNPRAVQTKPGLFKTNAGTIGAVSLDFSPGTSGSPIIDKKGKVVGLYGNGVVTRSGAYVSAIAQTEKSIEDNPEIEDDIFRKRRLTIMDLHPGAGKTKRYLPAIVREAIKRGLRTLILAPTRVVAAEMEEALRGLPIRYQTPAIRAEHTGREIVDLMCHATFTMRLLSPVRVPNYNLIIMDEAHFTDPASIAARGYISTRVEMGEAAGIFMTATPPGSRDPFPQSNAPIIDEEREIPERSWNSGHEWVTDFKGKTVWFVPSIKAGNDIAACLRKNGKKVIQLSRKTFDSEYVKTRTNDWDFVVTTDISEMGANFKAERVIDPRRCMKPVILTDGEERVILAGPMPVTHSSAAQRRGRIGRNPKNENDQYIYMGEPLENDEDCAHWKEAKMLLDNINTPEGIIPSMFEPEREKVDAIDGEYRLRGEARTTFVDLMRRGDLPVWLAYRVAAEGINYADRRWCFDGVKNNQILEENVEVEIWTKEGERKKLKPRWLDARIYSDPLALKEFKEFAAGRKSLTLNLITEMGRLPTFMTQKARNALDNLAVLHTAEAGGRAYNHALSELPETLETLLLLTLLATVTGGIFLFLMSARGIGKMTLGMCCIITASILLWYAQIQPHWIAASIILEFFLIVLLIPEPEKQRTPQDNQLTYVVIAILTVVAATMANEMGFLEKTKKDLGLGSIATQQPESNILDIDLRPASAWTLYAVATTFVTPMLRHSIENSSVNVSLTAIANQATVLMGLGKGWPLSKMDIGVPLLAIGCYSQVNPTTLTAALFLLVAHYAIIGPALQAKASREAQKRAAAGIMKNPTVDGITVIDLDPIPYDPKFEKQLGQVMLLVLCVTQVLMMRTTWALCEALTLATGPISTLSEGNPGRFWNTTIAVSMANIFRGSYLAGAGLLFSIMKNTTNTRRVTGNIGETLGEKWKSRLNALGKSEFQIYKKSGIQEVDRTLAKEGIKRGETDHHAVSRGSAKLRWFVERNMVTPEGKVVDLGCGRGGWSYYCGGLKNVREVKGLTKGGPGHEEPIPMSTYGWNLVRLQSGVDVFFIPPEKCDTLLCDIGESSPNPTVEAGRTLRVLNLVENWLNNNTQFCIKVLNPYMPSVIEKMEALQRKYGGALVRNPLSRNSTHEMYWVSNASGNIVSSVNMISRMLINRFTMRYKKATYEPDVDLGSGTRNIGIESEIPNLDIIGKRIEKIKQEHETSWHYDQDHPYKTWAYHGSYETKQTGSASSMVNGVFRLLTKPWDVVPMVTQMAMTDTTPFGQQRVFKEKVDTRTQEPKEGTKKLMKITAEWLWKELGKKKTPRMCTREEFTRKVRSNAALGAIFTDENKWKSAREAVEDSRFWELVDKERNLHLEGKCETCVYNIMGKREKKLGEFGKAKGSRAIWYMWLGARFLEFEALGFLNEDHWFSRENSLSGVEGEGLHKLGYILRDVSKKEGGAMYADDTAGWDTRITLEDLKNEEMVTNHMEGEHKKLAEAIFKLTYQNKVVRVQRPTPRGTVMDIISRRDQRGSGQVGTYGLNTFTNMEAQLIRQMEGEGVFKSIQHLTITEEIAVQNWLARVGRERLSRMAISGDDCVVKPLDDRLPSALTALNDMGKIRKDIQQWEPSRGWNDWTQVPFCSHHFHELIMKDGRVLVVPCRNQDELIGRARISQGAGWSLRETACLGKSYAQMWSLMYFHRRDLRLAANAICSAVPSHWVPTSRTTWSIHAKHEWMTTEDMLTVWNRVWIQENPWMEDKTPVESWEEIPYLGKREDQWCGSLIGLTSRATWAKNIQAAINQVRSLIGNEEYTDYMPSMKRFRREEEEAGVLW

SMILES | IC50 [µM]
CCCCC1(C)OC(=O)C(=Cc2ccc(-c3ccc(Cl)c(C(=O)O)c3)o2)C(=O)O1 (configuration not stated) | 14
C=Cc1c(C)c2cc3[nH]c(cc4nc(cc5nc(cc1[nH]2)C(C)=C5CCC(=O)O)C(CCC(=O)O)=C4C)c(C)c3C=C | 34.6
